Data published in US20050074777A1, “Novel cell-surface estrogen receptor and related compositions and methods” (priority 2002, published 2005).
“Also recorded” adds a separate entry of the source. Each block holds one molecule with its values, some of them ahead of it.

Columns and labels:
ERK1/2 phosphorylation [1] = experiment: Cholesterol depletion: ERK1/2 phosphorylation in neocortical explants pre-treated with Nystatin; format: cell-based, mouse; settings: P9 wild-type neocortical explants, 50 μg/ml for 1 hour before a 30 minute pulse
Method: Cholesterol depletion. To determine whether disruption of CLMs impairs estrogen activation of the MAPK cascade, neocortical explants were pre-treated on P9 with the sterol binding agent Nystatin (50 μg/ml) (Sigma-Aldrich), a compound used extensively to document the association of growth factor receptors with caveolae/CLMs (Huang, 1999). […] P9 neocortical explants were exposed to Nystatin (50 μg/ml) (Sigma-Aldrich), BDNF (10 ng/ml) or vehicle control (PBS) for 1 hour prior to pulsing with 10 nM 17β-estradiol for 30 minutes in the continued presence of Nystatin, BDNF or vehicle. Explants were then analyzed by Western immunoblot analysis for phospho-ERK expression using antibodies to phosphorylated p44/42 MAP Kinase (ERK1/2, Thr202/Tyr204; Cell Signaling Technology), as previously described (Singh, 1999; and Singh, 2000).

ERK1/2 phosphorylation [2] = settings: neocortical explants (Singh, 2000); cited from earlier work
[3] = system: estrogen-binding protein (ER-X); experiment: DES-sensitive 3H-estradiol binding in CLM preparations and lysates; parameters: species or system mouse; settings: unlabeled competitor in excess
Method: Caveolar-like membrane (CLM) preparation. Membrane fractions were prepared by adapting the detergent-free method of Smart et al. (Smart, 1995). Briefly, pools of 40-50 P7 ERKO neocortices were homogenized in 20 mM Tricine, pH 7.8 buffer, containing 1 mM EDTA, 0.25M sucrose and 1 mM dithiothreitol (TESD buffer), then centrifuged at 1000×g at 4° C. for 10 minutes. The pellet was resuspended in TESD buffer, re-centrifuged, and the supernatants pooled. The combined supernatants were subjected to Percoll® gradient fractionation in the same buffer to isolate the plasma membrane fraction. In some binding experiments (indicated below), Percoll® purified plasma membranes were used without further fractionation. For preparation of CLMs, plasma-membranes were sonicated and further separated by centrifugation on a linear 20% to 10% OptiPrep (iodixanol) gradient (Nycomed Pharma AS, Oslo, Norway). Based upon their light buoyant density, CLMs were separated and purified from non-CLMs using two OptiPrep density gradients. […] Electrophoretically separated CLMs on PVDF membranes were probed with antibodies specific for ER-α ([…], UBI; MC20, Santa Cruz), ER-β (Zymed), flotillin (BD Transduction Labs) and other caveolar-resident proteins (PKC-α and PKC-γ, BD Transduction Labs) and non-caveolar-resident proteins (paxillin, BD Transduction Labs). Estrogen binding assay. Duplicate aliquots of 1 mg each of protein lysate from ERKO P7 neocortex or wild-type adult uterus were pre-cleared for 30 minutes using anti-rabbit-IgG-coated magnetic beads (Dynal AS). Pre-cleared protein lysates were immunoprecipitated with anti-ER-α antibodies (6F11, Novocastra; or MC20, Santa Cruz) at 4° C. overnight. […] NEN Life Sciences, Boston, Mass.) at 4° C. for 18 hours. The incubation was terminated by adsorption of the binding sites onto an equal volume of hydroxylapatite (HAP) slurry in TESD buffer. HAP pellets were washed four times with Tris-buffered saline containing 0.2% Tween-20 buffer and extracted with 1 ml absolute ethanol overnight at room temperature. The ethanol supernatants were transferred to liquid scintillation fluid (5 ml) and counted. Control tubes, used in assessing HAP adsorption of free steroid, contained HAP and the same buffer constituents, without addition of the membranes. Non-specific binding was assayed in the membranes using the same amount of radioactive ligand plus 200-fold molar excess of unlabeled diethylstilbestrol (DES) (Sigma-Aldrich). Specific binding was calculated by subtracting non-specific from total binding.

[4] = system: ER-X (plasma-membrane estrogen binding site of P7 ERKO neocortex); experiment: Specificity (competition) of 3H-estradiol binding in Percoll-purified P7 ERKO neocortical membranes; parameters: species or system mouse; settings: 2 nM 3H-estradiol, 18 hours at 4° C.
Method: Binding of ^3H estradiol to Percoll®-purified plasma-membranes from P7 ERKO and wild-type mouse neocortex. (a) Identical amounts of membrane protein (50 μg/tube) were incubated with varying concentrations of ^3H estradiol (0.3-8 nM) for 18 hours at 4° C. The reaction was terminated by addition of hydroxylapatite (HAP). The membranes and HAP were sedimented by centrifugation in a microfuge, and the pellet washed 4 times to remove free steroid. Radioactivity in the pellets was extracted with ethanol and counted. […] (b) Specificity of the binding site in Percoll®-purified membranes from P7 ERKO mouse neocortex. […] Bound ^3H estradiol was separated by sedimentation with HAP and counted at an efficiency of 50%. Data represent the number of bound counts (after subtraction of HAP-only blank control tubes, containing no membrane protein) expressed as the means +/−S.D. of triplicate determinations. The horizontal dashed line indicates the level of non-specific binding observed in the presence of 1 μM DES. Estrogen binding assay. Duplicate aliquots of 1 mg each of protein lysate from ERKO P7 neocortex or wild-type adult uterus were pre-cleared for 30 minutes using anti-rabbit-IgG-coated magnetic beads (Dynal AS). Pre-cleared protein lysates were immunoprecipitated with anti-ER-α antibodies (6F11, Novocastra; or MC20, Santa Cruz) at 4° C. overnight. […] NEN Life Sciences, Boston, Mass.) at 4° C. for 18 hours. The incubation was terminated by adsorption of the binding sites onto an equal volume of hydroxylapatite (HAP) slurry in TESD buffer. HAP pellets were washed four times with Tris-buffered saline containing 0.2% Tween-20 buffer and extracted with 1 ml absolute ethanol overnight at room temperature. The ethanol supernatants were transferred to liquid scintillation fluid (5 ml) and counted. Control tubes, used in assessing HAP adsorption of free steroid, contained HAP and the same buffer constituents, without addition of the membranes. Non-specific binding was assayed in the membranes using the same amount of radioactive ligand plus 200-fold molar excess of unlabeled diethylstilbestrol (DES) (Sigma-Aldrich). Specific binding was calculated by subtracting non-specific from total binding.

ERK1/2 phosphorylation [5] = experiment: Phosphorylation of ERK1/2 in ERKO CLM and non-CLM preparations; format: biochemical, mouse; settings: for phosphorylation of ERK1/2: 30 minutes
Method: Phosphorylation of ERK1/2 in CLM and non-CLM preparations. Phosphorylation of ERK1/2 in ERKO CLM and non-CLM preparations was examined following the method of Liu et al. (Liu, 1997), except that basal medium Eagle (BME) was used in the place of MEM. Nine parts of CLM or non-CLM preparations were mixed with one part of 10×BME, pH 7.4 containing BSA 800 μg/ml, 10 mM NaF, 2 mM Na3VO4, leupeptin 100 μg/ml, soybean trypsin inhibitor 100 μg/ml, 10 mM MgCl2, and 1 mM ATP. […] Cell Signaling Technology, Beverly, Mass.) for 30 minutes prior to pulsing them with the appropriate estradiol. […] (Singh, 1999; and Singh, 2000).

ERK1/2 phosphorylation [6] = experiment: ERK1/2 phosphorylation in post-nuclear supernatant (PNS), cell-free system; format: biochemical, mouse; settings: for phosphorylation of ERK1 and ERK2: P7 wild-type neocortical PNS, 10 minutes, 37° C.
Source text: Isolation of post-nuclear supernatant (PNS). To increase the yield of ER-X and to test in a cell-free system whether the presence of ER-α is inhibitory for ERK activation, as had been shown previously in neocortical cultures (Singh, 2000), PNS, a cell-free system which contains all the cell organelles except the nucleus, was studied. PNS was isolated from P7 wild-type and ERKO neocortices according to the method of Smart et al. (Smart, 1995). Three to four P7 wild-type and ERKO neocortices were homogenized using a teflon homogenizer in 1 ml of 20 mM Tricine, pH 7.8 buffer, containing 1 mM EDTA, 0.25M sucrose, 10 μg/ml aprotinin and 1 μg/ml leupeptin. The homogenate was centrifuged at 1000×g at 4° C. for 10 minutes. The supernatant obtained is the PNS. The pellet was resuspended in 500 μl of the homogenization buffer, re-centrifuged, and the PNS obtained was pooled with the first PNS. ERKO and wild-type PNS were mixed with 10X phosphorylation buffer, and the MAPK assay was performed as described above.

ERK1/2 phosphorylation [7] = experiment: ERK1/2 phosphorylation in neocortical explant cultures (Western immunoblot); format: cell-based, mouse; settings: wild-type neocortical cultures
Method: Neocortical cultures. Organotypic explant cultures, obtained from 360 pm hemi-coronal slices of the frontal and cingulate neocortex of P2 wild-type and ERKO mice (day of birth =P1), were explanted onto collagen-coated, poly-D-lysine pre-coated coverslips and maintained in roller tube culture with gonadal steroid-deficient (gelding serum) and phenol red-free nutrient medium, as previously described (Singh, 1999; and Singh, 2000). The nutrient medium was supplemented with 17β-estradiol (2 nM; Sigma-Aldrich, St. Louis, Mo.) for one week, in order to optimize the development of CNS cultures from estrogen target regions. […]
Antibody binding to protein was detected using a secondary antibody conjugated to horseradish peroxidase (1:40,000; Pierce Chemical Company, Rockford, Ill.), and visualized autoradiographically on film using enzyme-linked chemiluminescence (ECL®; Amersham Pharmacia Biotech) (Singh et, 1999; and Singh, 2000). All blots were stripped and re-probed with the appropriate antibody to verify equal loading of protein across lanes and were analyzed densitometrically. […]

[8] = 1 μM unlabelled competitor (500-fold molar excess)

SMILES: C[C@@H]1[C@H](O)[C@@H](C)/C=C/C=C/CC/C=C/C=C/C=C/C=C/C(O[C@H]2O[C@H](C)[C@@H](O)[C@H](N)[C@@H]2O)CC2O[C@](O)(CC(O)C(O)CCC(O)CC(O)CC(O)CC(=O)O[C@H]1C)CC(O)C2C(=O)O (stereo partly shown) [Nystatin]
effect on ERK1/2 phosphorylation elicited by 17β-estradiol (10 nM) and BDNF (ERK1/2 phosphorylation [1]): decreased the ability of both estradiol and BDNF to elicit ERK1/2 phosphorylation

SMILES: C[C@]12CC[C@@H]3c4ccc(O)cc4CC[C@H]3[C@@H]1C[C@@H](I)[C@@H]2O [16α-iodo-17β-estradiol]
activation of ERK1/2 by ER-α- or ER-β-selective ligands (ERK1/2 phosphorylation [2]): not activated

effect on binding of 10 nM 3H-estradiol to P7 ERKO CLMs [3]: suppressed
SMILES: CC/C(=C(/CC)c1ccc(O)cc1)c1ccc(O)cc1 [DES, diethylstilbestrol]

inhibition of binding of 3H-estradiol ([4]; 50 nM unlabelled competitor): markedly inhibited
inhibition of binding of 3H-estradiol [4, 8]: reduced to the non-specific levels
SMILES: C[C@]12CC[C@@H]3c4ccc(O)cc4CC[C@H]3[C@@H]1CC[C@H]2O [17α-estradiol]
phosphorylation of ERK1/2 (ERK1/2 phosphorylation [5]; P7 ERKO neocortical CLMs, 0.1 nM): elicited phosphorylation of ERK1/2
phosphorylation of ERK1/2 (ERK1/2 phosphorylation [5]; non-CLM regions of the plasma membrane, 0.1 nM): did not respond
phosphorylation of ERK1 and ERK2 (ERK1/2 phosphorylation [6]; 0.1 nM): elicited MEK-dependent (U0126) phosphorylation of ERK1 and ERK2

SMILES: N#CC(=C(/N)Sc1ccccc1N)/C(C#N)=C(\N)Sc1ccccc1N [U0126]
effect on estradiol-induced ERK activation (ERK1/2 phosphorylation [5]; P7 ERKO neocortical CLMs, 10 μM, 30 minutes pre-treatment): inhibited
effect on estradiol-induced ERK1/2 phosphorylation (ERK1/2 phosphorylation [6]; wild-type neocortical PNS, 10 μM): inhibited

SMILES: O=c1oc2cc(O)ccc2c2oc3cc(O)ccc3c12 [coumestrol]
activation of ERK1/2 by ER-α- or ER-β-selective ligands (ERK1/2 phosphorylation [2]): not activated

inhibition of binding of 3H-estradiol ([4]; 50 nM unlabelled competitor): markedly inhibited
inhibition of binding of 3H-estradiol [4, 8]: reduced to the non-specific levels
SMILES: C[C@]12CC[C@@H]3c4ccc(O)cc4CC[C@H]3[C@@H]1CC[C@@H]2O [17β-estradiol]
concentration range eliciting activation of ERK1/2 (ERK1/2 phosphorylation [7]): 0.1 to 10 nM
phosphorylation of ERK1/2 (ERK1/2 phosphorylation [5]; P7 ERKO neocortical CLMs, 10 nM): elicited phosphorylation of ERK1/2
phosphorylation of ERK1/2 (ERK1/2 phosphorylation [5]; non-CLM regions of the plasma membrane, 10 nM): did not respond
phosphorylation of ERK1 and ERK2 (ERK1/2 phosphorylation [6]; 10 nM): significantly less than the levels following exposure to 17α-estradiol; also recorded: elicited MEK-dependent (U0126) phosphorylation of ERK1 and ERK2

SMILES: O=c1c(-c2ccc(O)cc2)coc2cc(O)cc(O)c12 [genistein]
activation of ERK1/2 by ER-α- or ER-β-selective ligands (ERK1/2 phosphorylation [2]): not activated

inhibition of binding of 3H-estradiol [4, 8]: only partially suppressing binding
SMILES: CC(=O)[C@H]1CC[C@H]2[C@@H]3CCC4=CC(=O)CC[C@]4(C)[C@H]3CC[C@]12C [progesterone]
